Test results from patent publication US9237750B2, “Ornidazole and related compounds for use as herbicides” (RAMOT AT TEL-AVIV UNIVERSITY LTD., priority 2012, dated 2016).

Legend:
Aldolase = test: Calvin cycle enzyme activity; type: biochemical, Anabaena; conditions: 1 mM Ornidazole
Experimental: (§1) Rubisco was assayed as described by Marcus et al. (2005, ibid) and Snir et al. (2006, ibid). Phospho-ribulose kinase was assayed by conversion of phospho-ribulose to RuBP, which was determined by Rubisco dependent carboxylation with radiolabeled ^14CO2. Plant or cyanobacterial extract was incubated with medium containing 50 mM Hepes pH 8, 10 mM MgCl2, 20 mM NaH^14CO3, 1 mM DTT, 0.5 mM ribose-5-phosphate, ribose-5-phosphate isomerase and activated Rubisco. Phosphoglycerate kinase, GAPDH, FBPase and SBPase were determined as described by Leegood (Leegood R C., 1990. In: Methods in plant biochemistry, Vol 3, pp 15-37, Academic Press).
(§2) However, analysis of Ornidazole effect on various enzymes of the Calvin cycle in Anabaena including ribulose-bisphosphate carboxylase/oxygenase (Rubisco), phosphoglycerate kinase, glyceraldehyde-3-phosphate dehydrogenase (GAPDH), triose-phosphate isomerase, aldolase, fructose and sedoheptulose bisphosphatase and phosphoribulose kinase, has shown inhibition of GAPDH and triose-phosphate isomerase (Table 2).

GAPDH = test: Calvin cycle enzyme activity; type: biochemical, Anabaena; conditions: 1 mM Ornidazole
Experimental: as §1, §2

Phosphglycerate kinase = target: T1, Phosphglycerate kinase (Nostoc sp., UniProt Q8YPR1); test: Calvin cycle enzyme activity; type: biochemical, Anabaena; conditions: 1 mM Ornidazole
T1 construct: endogenous in cells; host or cells: Anabaena PCC7120 extract
T1 sequence (Q8YPR1 1-400): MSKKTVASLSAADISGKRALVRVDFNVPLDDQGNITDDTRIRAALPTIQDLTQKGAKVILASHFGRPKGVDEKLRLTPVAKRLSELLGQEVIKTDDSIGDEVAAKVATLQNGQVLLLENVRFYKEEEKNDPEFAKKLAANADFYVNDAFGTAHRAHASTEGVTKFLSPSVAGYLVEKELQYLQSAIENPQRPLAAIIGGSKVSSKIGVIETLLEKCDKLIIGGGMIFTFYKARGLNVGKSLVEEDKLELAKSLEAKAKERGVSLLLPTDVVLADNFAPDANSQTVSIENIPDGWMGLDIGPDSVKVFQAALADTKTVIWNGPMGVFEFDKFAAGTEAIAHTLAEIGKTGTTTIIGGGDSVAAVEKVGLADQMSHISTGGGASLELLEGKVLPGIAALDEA
Experimental: as §1, §2

Fructose bisphosphatase = test: Calvin cycle enzyme activity; type: biochemical, Anabaena; conditions: 1 mM Ornidazole
Experimental: as §1, §2

[1] = tested on: Sedoheptulose bisphosphatase; test: Calvin cycle enzyme activity; type: biochemical, Anabaena; conditions: 1 mM Ornidazole
Experimental: as §1, §2

Rubisco = target: T2, Rubisco (Nostoc sp., UniProt P00879); test: Calvin cycle enzyme activity; type: biochemical, Anabaena; conditions: 1 mM Ornidazole
T2 construct: endogenous in cells; host or cells: Anabaena PCC7120 extract
Experimental: as §1, §2

Phosphoribulose kinase = test: Calvin cycle enzyme activity; type: biochemical, Anabaena; conditions: 1 mM Ornidazole
Experimental: as §1, §2

[2] = target: T3, Triose phosphate isomerase (Nostoc sp., UniProt Q8YP17); test: Calvin cycle enzyme activity; type: biochemical, Anabaena; parameters: endogenous in cells; host or cells: Anabaena PCC7120 extract; conditions: 1 mM Ornidazole
T3 sequence (Q8YP17 1-241): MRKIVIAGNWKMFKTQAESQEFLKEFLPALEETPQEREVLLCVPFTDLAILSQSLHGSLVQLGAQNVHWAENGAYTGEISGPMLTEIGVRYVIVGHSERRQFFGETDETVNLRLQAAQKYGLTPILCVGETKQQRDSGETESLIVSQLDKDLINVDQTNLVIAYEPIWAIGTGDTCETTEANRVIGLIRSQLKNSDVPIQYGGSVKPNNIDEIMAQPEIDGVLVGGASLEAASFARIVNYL
Experimental: as §1, §2

[3] = tested on: Phaeodactylum tricornutum; test: Net O2 exchange (photosynthesis and respiration), O2 electrode; type: cell-based, Phaeodactylum tricornutum (Diatoms)
Experimental: The cyanobacterium Anabaena PCC7120 was grown in BG-11 medium as was previously described (Marcus Y, et al., 2005. J Bacteriol 187, 4222-4228). The green eukaryotic alga Dunaliella salina was grown on a medium described by Ben-Amotz and Avron (Ben-Amotz A and Avron M 1983. Plant Physiol 72, 593-597), under 20 μmol photons m^−2 sec^−1 at 30° C. The aquatic plant Lemna was collected from an open pond at the Botanical garden of Tel Aviv University. Seedlings of Avena sterilis were grown in pots in a greenhouse. The marine diatom Phaeodactylum tricornutum was grown as described in Haimovich-Dayan et al. (Haimovich-Dayan M. et al. 2012. New Phytol 195:177-185).
(§3) The rate of net O2 exchange was determined using a Clark-type O2 electrode (Rank Brothers Ltd, UK). Fluorescent measurements (quantum yield, photochemical and non photochemical quenching) were determined using a modulated fluorometer (PAM, Walz, Germany) as described by Schreiber et al. (Schreiber U et al., 1986. fluorometer. Photosynth Res 10, 51-62) and Snir et al. (Snir A, et al., 2006. Photosynth Res 90, 233-242).
The algae Anabaena PCC7120 (Cyanobacteria), Dunaliella salina (Chlorophyta) and Phaeodactylum tricornutum (Diatoms) were each grown in its suitable medium as described hereinabove towards the mid logarithmic phase. 1 mM Ornidazole was then added to the medium for 5 min, and respiration and photosynthesis were measured for at least 10 min.

Lemna = test: PAM fluorescence parameters of aquatic plant; type: in vivo; conditions: 1 mM Ornidazole in growth medium; actinic light 210 μmol photons×m^−2×sec^−1
Experimental: The fluorescence under dim (3 μmol photons×m^−2×sec^−1) and saturating (2000 μmol photons×m^−2×sec^−1, 0.8 sec) flash light (Fo and Fmax, respectively) of pre-darkened plants was determined in the presence or absence of 1 mM Ornidazole in the growth medium, using a PAM fluorimeter. Quantum yield and non-photochemical quenching (qN) were determined with saturating flashes under actinic light (210 μmol photons×m^−2×sec^−1).
as §3
The effect of Ornidazole on photosynthesis was further examined in the aquatic plant Lemna. Lemna plants were collected from a pond at the Botanical garden of Tel Aviv University and kept in the pond water as a growth medium. The fluorescence under dim (3 μmol photons m^−2 sec^−1) and saturating (2000 μmol photons m^−2 sec^−1, 0.8 sec) flash light (Fo and Fmax, respectively) of pre-darkened plants was determined in the presence or absence of 1 mM Ornidazole in the growth medium, using a PAM fluorimeter (H. Walz, Germany). […]

[4] = Phaeodactylum tricornutum, 1 mM Ornidazole added for 5 min

For `Cc1ncc([N+](=O)[O-])n1CC(O)CCl` (stereo not shown) [Ornidazole, 1-chloro-3-(2-methyl-5-nitro-1H-imidazol-1-yl)propan-2-ol], the Activity (Aldolase) was 120 μmol × mg^−1chl × h^−1, the Activity (GAPDH) was 1.77 μmol × mg^−1chl × h^−1 and the “inhibition of enzyme activity” value (GAPDH) was 98%-100. The Activity (Phosphglycerate kinase) was 57 μmol × mg^−1chl × h^−1, the Activity (Fructose bisphosphatase) was 71 μmol × mg^−1chl × h^−1 and the Activity [1] was 62 μmol × mg^−1chl × h^−1. The Activity (Rubisco) was 74.6 μmol × mg^−1chl × h^−1, the Activity (Phosphoribulose kinase) was 66.7 μmol × mg^−1chl × h^−1 and the Activity ([2]; Triose phosphate isomerase) was 0 μmol × mg^−1chl × h^−1. For the same compound, the inhibition at 1000 µM ([2]; triose-phosphate isomerase) was 98 to 100%, the Photosynthesis [3, 4] was −4.33 μmol O2 mg^−1 chl h^−1 and the Respiration [3, 4] was −67.14 μmol O2 mg^−1 chl h^−1. For the same compound, the “effect on respiration rate” value ([3]; Phaeodactylum, 1 mM) was “stimulated the respiration rate”, the effect on photosynthesis ([3]; Phaeodactylum, higher concentrations (than 1 mM) or longer incubation time) was “abolished photosynthesis” and the non-photochemical quenching (Lemna) was “increased”. For the same compound, the photosynthetic quantum yield (Lemna) was “decreased significantly”.
